Converted amounts (≈) assume the structure as drawn.
Tests used:
Bacillus cereus = assay: Broth dilution MIC determination; format: cell-based; conditions: 37 °C, 24 h, read-out: Minimum Inhibitory Concentrations
Experimental: (§1) Antibacterial potential of isolated compound was investigated against both Gram-positive and Gram-negative bacterial strains; Escherichia coli, Bacillus cereus, Salmonella typhi, Klebsiella pneumonia, Pseudomonas aeruginosa and Proteus mirabilis. Bacterial strains were provided by the Department of Pharmacy, University of Malakand, Khyber Pakhtunkhwa, Pakistan, and were kept at 4 °C in agar slants in freeze-dried condition until further use.
(§2) Both Gram-positive and Gram-negative bacterial strains Escherichia coli, Bacillus cereus, Salmonella typhi, Klebsiella pneumonia, Pseudomonas aeruginosa and Proteus mirabilis organism viable count per mL in the stock suspension was determined using surface viable counting technique. About 10^8–10^9 colony-forming units (CFU) per mL were used as inoculum in subsequent experiments. A fresh stock suspension was used each time.
(§3) Minimum inhibitory concentrations (MICs) of morin, phloroglucinol, and 1-hexyl benzene were determined using broth dilution method, following the Clinical and Laboratory Standards Institute (CLSI) guidelines. Stock solutions of morin, phloroglucinol, and 1-hexyl benzene were prepared in dimethylsulphoxide (DMSO). The serial dilutions from the stock solution were made ranging from 500 to 3.90 μg/mL using Mueller–Hinton broth. Sterile centrifuge tubes were arranged in sets of rows for each bacterial inoculum to cover the different concentration of isolated compounds in triplicate. The standard bacterial stock suspension 10^8–10^9 CFU/mL, in 100 μL were inoculated into each tube. A sterility control tube and a growth control tube were also incubated (for each strain). The tubes were incubated at 37 °C for 24 h. After incubation, 40 μL of a 0.4 mg/mL solution of para iodonitrotetrazolium (INT) chloride was added to each tube as an indicator of microbial growth. […] The evaluation for the inhibition of microbial growth was based on the color change of INT to pink, while no color change indicates the absence of growth. The MIC is the lowest concentration of the compounds at which there is no visible growth in the tubes. The concentration that inhibited bacterial growth completely (the first clear tube) was taken as the MIC value. Experiments were performed in triplicate and mean values are presented.
(§4) In order to, determine the sensitivity of the bacterial strains, positive control experiments were conducted, taking ampicillin at a starting concentration of 0.10 mg/mL in sterile water while the final concentrations for these experiments ranged from 25.00 to 0.19 μg/mL. A negative control experiment was conducted using only DMSO.

Pseudomonas aeruginosa = assay: Broth dilution MIC determination; format: cell-based; conditions: 37 °C, 24 h, read-out: Minimum Inhibitory Concentrations
Experimental: as §1, §2, §3, §4

Escherichia coli = assay: Broth dilution MIC determination; format: cell-based; conditions: 37 °C, 24 h, read-out: Minimum Inhibitory Concentrations
Experimental: as §1, §2, §3, §4

Klebsiella pneumonia = assay: Broth dilution MIC determination; format: cell-based; conditions: Klebsiella pneumoniae, 37 °C, 24 h, read-out: Minimum Inhibitory Concentrations
Experimental: as §1, §2, §3, §4

Proteus mirabilis = assay: Broth dilution MIC determination; format: cell-based; conditions: 37 °C, 24 h, read-out: Minimum Inhibitory Concentrations
Experimental: as §1, §2, §3, §4

[1] = molecular target: Type-I α-glucosidase (Baker Yeast) (Saccharomyces cerevisiae, UniProt P53341); assay: In vitro α-glucosidase inhibition assay (PNPG); format: biochemical; conditions: read-out: % α-Glucosidase Inhibition Mean ± SEM
Chain of Type-I α-glucosidase (Baker Yeast) (P53341 whole entry): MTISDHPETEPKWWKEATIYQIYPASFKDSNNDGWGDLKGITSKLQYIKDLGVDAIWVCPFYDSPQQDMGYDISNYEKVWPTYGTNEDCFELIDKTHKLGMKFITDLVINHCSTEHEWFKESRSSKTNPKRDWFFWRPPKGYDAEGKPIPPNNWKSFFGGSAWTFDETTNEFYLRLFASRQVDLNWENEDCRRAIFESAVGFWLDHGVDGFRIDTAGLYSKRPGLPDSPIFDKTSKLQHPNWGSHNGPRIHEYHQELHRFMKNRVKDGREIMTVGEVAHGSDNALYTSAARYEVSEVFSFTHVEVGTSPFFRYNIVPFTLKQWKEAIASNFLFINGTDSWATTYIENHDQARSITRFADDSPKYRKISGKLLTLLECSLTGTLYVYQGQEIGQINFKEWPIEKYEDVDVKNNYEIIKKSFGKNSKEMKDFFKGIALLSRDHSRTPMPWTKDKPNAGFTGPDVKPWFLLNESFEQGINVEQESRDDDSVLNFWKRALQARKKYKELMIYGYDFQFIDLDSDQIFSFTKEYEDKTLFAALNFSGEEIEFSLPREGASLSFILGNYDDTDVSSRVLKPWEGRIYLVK
Description: Chemicals such as Tween-80 (Scharlau-chem., Barcelona, Spain), normal saline solution (Utsoka Pharma, Las Bela Baluchistan, Pakistan), lipid profile tests kits (Human, Hamburg, Germany), renal profile tests kits, and antioxidant enzymes kits (Biomed: Germany; diagnostic) were used in in vivo study. Mueller Hinton (MH) agar and broth (Merck, Modderfontein, South Africa) were used to culture the bacterial strains. Various solvents such as methanol, n-hexane, ethyl acetate, and chloroform (Merck, Darmstadt, Germany) were also used in this study.
The α-glucosidase inhibition potential of morin was determined according to the reported method with minor changes. The reaction mixture was prepared by taking 100 μL α-glucosidase (0.5 unit/mL), 600 μL phosphate buffer (0.1 M; pH 6.9), and 50 μL of isolated compounds (morin, phloroglucinol, and 1-hexyl benzene) with serial dilutions of 31.05, 62.5, 125, 250, 500 and 1000 µg/mL. All the reaction mixtures were incubated at 37 °C for 15 min. The enzymatic reactions were started by adding 100 μL substrate (p-nitro-phenyl-α-D-glucopyranoside) solution (5 mM) formed in phosphate buffer (0.1 M; pH 6.9), finally incubated at 37 °C for 15 min. The reaction was completed by adding sodium carbonate (400 μL; 0.2 M) solution and then at 405 nm absorbance was measured. The blank solution was prepared containing only isolated compounds without α-glucosidase. Percent α-glucosidase inhibition potential was calculated using Equation (3): (3) % α − glucosidase Inhibition =control absorbance−sample absorbance/control absorbance×100
All the in vitro and in vivo experiments were analyzed in three replicates and determined as mean ± SEM. Student’s t-test and one way ANOVA followed by Dunnett’s post hoc multiple comparison test was used. p ≤ 0.05 were considered as significant. Linear regression analysis was used to calculate the IC50 value for % DPPH, ABTS, α-amylase, and α-glucosidase inhibition against the different concentrations of the test samples by means of Excel program 2007.

Row | Structure (SMILES) | MIC (Bacillus cereus) | MIC (Pseudomonas aeruginosa) | MIC (Escherichia coli) | MIC (Klebsiella pneumonia) | MIC (Proteus mirabilis) | inhibition at 31.05 µg/mL [1] | inhibition at 62.5 µg/mL [1] | inhibition at 125 µg/mL [1] | inhibition at 250 µg/mL [1] | inhibition at 500 µg/mL [1] | inhibition at 1000 µg/mL [1]
1 | CCCCCCc1ccccc1 [1-Hexyl benzene, 1-hexylbenzene] | 135 ± 1.5 µg/mL (≈ 832 µM) | 200 ± 1.5 µg/mL (≈ 1230 µM) | 95 ± 2.1 µg/mL (≈ 585 µM) | 178 ± 2.2 µg/mL (≈ 1100 µM) | 250 ± 1.2 µg/mL (≈ 1540 µM) | 28 ± 1.2% | 32 ± 0.4% | 39 ± 1.1% | 45 ± 0.5% | 50 ± 1.2% | 58 ± 2.1%
2 | O=c1c(O)c(-c2ccc(O)cc2O)oc2cc(O)cc(O)c12 [Morin, 2-(2,4-Dihydroxyphenyl)-3,5,7-trihydroxychromen-4-one] | 21 ± 1.2 µg/mL (≈ 69.5 µM) | 44 ± 1.5 µg/mL (≈ 146 µM) | 25 ± 1.1 µg/mL (≈ 82.7 µM) | 30 ± 1.4 µg/mL (≈ 99.3 µM) | 55 ± 1.4 µg/mL (≈ 182 µM) | 42 ± 1.4% | 48 ± 0.3% | 52 ± 0.5% | 59 ± 1.4% | 66 ± 0.4% | 79 ± 1%
3 | Oc1cc(O)cc(O)c1 [Phloroglucinol, Benzene-1,3,5-triol] | 105 ± 1.6 µg/mL (≈ 833 µM) | 180 ± 2.1 µg/mL (≈ 1430 µM) | 80 ± 1.4 µg/mL (≈ 634 µM) | 166 ± 1.5 µg/mL (≈ 1320 µM) | 205 ± 1.5 µg/mL (≈ 1630 µM) | 27 ± 1% | 30 ± 1.4% | 37 ± 1.5% | 43 ± 0.4% | 48 ± 0.5% | 55 ± 2.1%
